Data on nine molecules can be found in patent publication US20040138234A1, “Histamine receptor antagonists” (Pfizer Inc, priority 2001, published 2004).

Structures can show the parent of a compound that is named as a salt.

One experiment deals with T1, histamine H4 receptor (Homo sapiens, UniProt Q9H3N8).
T1 construct: expressed in transfected cells; host or cells: HEK293
Description: Histamine H4 receptor radioligand binding, HEK293 cell line membranes. The text has this: The cDNA for the human histamine H3 and H4 receptor can be expressed in a suitable cell line such as HEK293 or CHO. In addition membranes can be prepared from tissues or cells which naturally express either the histamine H3 and/or H4 receptor. Affinity can be assessed at either receptor by assessing the ability of ligands to inhibit the binding of a suitable radioactively labelled ligand to membranes containing either the histamine H3 or H4 receptor. The potency of compounds is compared by calculating their pKI values.

The test system of experiment [1] is human eosinophils. The experiment can be described thus: Promotion of chemotaxis of interleukin 5 primed human isolated eosinophils (agonist mode). Type of experiment: cell-based. The note with it: interleukin 5 priming; for promotion of chemotaxis of human eosinophils: concentrations of from 10^−4 to 10^−5 M. The method, then: (§1) A further functional assay for the histamine H4 receptor determines the ability of histamine to induce chemotaxis in eosinophils isolated from human blood. In this assay cells are primed with interleukin 5 and the ability of histaminergic ligands to promote migration of eosinophils across a permeable membrane is studied. The number of cells migrating in a defined period is then counted. Agonist potencies are expressed as EC50 values. Antagonists can also be studied by pre-incubating eosinophils with the compound and then assessing the inhibitory effects on histamine (or other suitable ligand) on eosinophil chemotaxis. The experiments can be performed in one of two ways. Firstly, by increasing the concentration of antagonist versus fixed concentration of agonist and calculating the IC50 for each antagonist. Secondly, by increasing the concentration of antagonist versus increasing the concentration of agonist and expressing the antagonist potency as a pkb or pA2 value, as appropriate.

Experiment [2] deals with human eosinophils. The experiment can be described thus: Inhibition of histamine-induced chemotaxis of human eosinophils (eosinophil pre-incubation method). Format: cell-based. The settings on record: for effect on histamine-induced chemotaxis: at concentrations of 10 micromolar; for IC50: Homo sapiens, Eosinophil, eosinophils pre-incubated with antagonist, concentration related. The method, then:
as §1

T1 sequence (Q9H3N8 whole entry): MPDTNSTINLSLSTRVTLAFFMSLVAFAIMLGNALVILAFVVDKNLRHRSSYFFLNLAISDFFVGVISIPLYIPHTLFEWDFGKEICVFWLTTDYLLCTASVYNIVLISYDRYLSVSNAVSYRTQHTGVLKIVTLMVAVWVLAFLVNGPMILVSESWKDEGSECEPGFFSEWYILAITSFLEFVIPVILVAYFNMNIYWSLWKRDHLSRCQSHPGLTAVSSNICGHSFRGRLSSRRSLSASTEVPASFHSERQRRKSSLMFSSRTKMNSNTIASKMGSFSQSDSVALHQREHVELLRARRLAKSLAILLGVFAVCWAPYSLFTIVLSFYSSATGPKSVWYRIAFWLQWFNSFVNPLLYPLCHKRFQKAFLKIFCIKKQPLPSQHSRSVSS

Usually Ki stands for the equilibrium dissociation constant of an inhibitor or competing ligand from its target. Low readings indicate tighter binding, high ones weaker binding. For the molecule `NC(=NCc1ccc(Cl)cc1)SCCCc1cnc[nH]1` [Clobenpropit], the affinity at histamine H4 receptor, expressed as Ki, was 6.61 nM.
In the case of `CC(CCCCC(=O)Nc1ccc(C(F)(F)F)cc1)NCCc1cnc[nH]1` (stereo not drawn) [HTMT], in the experiment on human eosinophils [1], the “promotion of chemotaxis of human eosinophils” value is “did not promote chemotaxis”.
Regarding `CN/C(=N/CCSCc1nc[nH]c1C)NC#N` [cimetidine], the “effect on histamine-induced chemotaxis” value in the experiment on human eosinophils [2] is reported as “little or no effect”.
Broadly, the IC50 is the concentration that inhibits the measured activity by half. Turning to `NC(=NCc1ccc(Cl)cc1)SCCCc1cnc[nH]1` [clobenpropit dihydrobromide], in the experiment on human eosinophils [2], the IC50 is 1500 nM.
With `CN(C)CCCSC(=N)N` [dimaprit], in the experiment with human eosinophils [1], the “promotion of chemotaxis of human eosinophils” value is given as “did not promote chemotaxis”.
With `NCCc1c[nH]cn1` [histamine], in the experiment with human eosinophils [1] (concentration range 10^−8 to 10^−5 M), the “promotion of chemotaxis of human isolated eosinophils” value was “promoted chemotaxis”.
Take `N=C(N)SCCc1cnc[nH]1` [imetit]: the “promotion of chemotaxis of human eosinophils” value with human eosinophils [1] was “did not promote chemotaxis”.
Regarding `COc1ccc(CN(CCN(C)C)c2ccccn2)cc1` [mepyramine maleate], the “effect on histamine-induced chemotaxis” value with human eosinophils [2] is reported as “little or no effect”.
For `S=C(NC1CCCCC1)N1CCC(c2cnc[nH]2)CC1` [thioperamide maleate], the IC50 in the experiment on human eosinophils [2] stood at 830 nM.
